Entries after “also recorded” stand apart in the source; their conditions may differ.
Columns and labels:
[1] = test system: glomerular epithelial cells GEC; assay: PAN-induced cytotoxicity to GEC (trypan blue exclusion, LDH release); type: cell-based, rat; conditions: PAN 1.5 mM 48 h; preincubation CM 2 mM, PB 25 μM, RN 1 mM, PIP 0.2 mM, pyruvate 10 mM
Protocol: Rat GEC (kindly provided by both Dr. Saulo Klahr, Washington University School of Medicine, St. Louis, Mo., and Dr. […], University of Texas Health Science Center, San Antonio, Tex.) were maintained in RPMI-1640 medium supplemented with 10% FBS, 15 mM HEPES, insulin, penicillin, streptomycin and L-glutamine in a humidified atmosphere of 95% air-5% CO2 at 37° C. and fed at intervals of 3 days ([…] et al, 1995, Biochem. Biophys. 318(2):286-294). The cells were maintained in 75 Cm^2 tissue culture flasks and the monolayers were subcultured using 0.05% trypsin-0.53 mM EDTA in Hank's balanced salt solution (HBSS). For the experimental study, the cells were grown in 12-well tissue culture plate until confluence. On the day of experiment, the medium was discarded and the confluent GEC monolayer was washed twice with HBSS. The cells were then incubated with various concentrations of PAN (0, 0.1, 0.5, 1.0, 1.5, and 2.0 mM in HBSS) for different periods of time (0, 6 hours, 1 day, 2 days, 3 days and 4 days) at 37° C. At the end of the incubation, the incubation medium was discarded and the GEC monolayer was harvested by trypsinization with 0.05% trypsin-0.53 mM EDTA for 5 min at 37° C. Isolated cells were suspended in HBSS to give about 10^6 cells/ml. PAN-induced cytotoxicity to GEC was measured by the trypan blue exclusion assay (Baliga et al, 1996, Kidney Intl. 50:1118-1124) and lactate dehydrogenase (LDH) release assay (Baliga et al., 1998, Kidney Intl. 53:394-401.). The latter is the percentage of LDH released into the medium, to total LDH recovered from both medium and cellular fraction. […] After the incubation, the cell monolayers were washed twice with HBSS and then incubated with cytotoxic dose of PAN in HBSS for a period of time necessary to induce consistent cytotoxicity ([…], 48 h, based on the concentration and time course studies) at 37° C. PAN induced cytotoxicity on GEC was measured by trypan blue exclusion assay.

heme oxidase (HO-1) = assay: HO-1 induction in kidney of PAN-treated rats (immunohistochemistry, western blot, RT-PCR); type: in vivo, rat
From the text: The microsome fraction obtained was subjected to SDS-page electrophoresis in 1 mm slab gels. The separated forms were transferred from gel to a nitrocellulose sheet using a Mini Trans-blot electroblotting unit. The primary antibodies were monoclonal anti-HO-1 (OSA-111, StressGen, Victoria, BC, Canada) and monoclonal anti-CYP2B1 (PM25, Oxford Biomedical Research, Oxford, Mich., USA). Subsequent to primary and secondary antibody (peroxidase-labeled) treatment, the blots were visualized by enhanced chemiluminescence method.
Kidney cortical sections were fixed in 10% buffered formalin for 6 hours and embedded in paraffin. After deparaffinization and antigen retrieval, the sections were immunolabeled and visualized according to an avidin-biotin complex (ABC) method. The primary antibody for detection of ferritin was polyclonal anti-Ferritin (L subunit) antibody (605022; Boehringer Mannheim Corp., Indianapolis, Ind., USA).
RNA was isolated from the kidney cortex using TRIzol Reagant (Gibco, BRL, Gaithersburg, Md., USA). Revers transcription of […] of total RNA was carried out using Moloney murine leukemia virus reverse transcriptase (Gibco, BRL). The resulting first-strand cDNA preparations were used as templates for PCR. HO-1 primer described by Paschen et al (Neurosci Lett, 1994, 180:5-8.) were purchased from Gibco, BRL. The sense primer was: %′-[…]-3′, and the antisense 5′-[…]-3′. […]

CN(C)c1ncnc2c1ncn2[C@@H]1O[C@H](CO)[C@@H](N)[C@H]1O [PAN, puromycin aminonucleoside]
PAN-induced cytotoxicity to GEC [1]: cytotoxic; also recorded: cell death in a time and dose dependent manner
HO-1 induction in the glomeruli and tubules (heme oxidase (HO-1); PAN-treated rats): marked induction
HO-1 mRNA expression in the kidney (heme oxidase (HO-1); RT-PCR vs GAPDH, one hour to day 4 after PAN): significantly increase
